From the supplement of paper PMC12646585

System: TK6
Test: relative viability (MTT, 20-24 h post-exposure) vs solvent control; higher = less cytotoxic
Details: exposure time: 4 h (S9 compounds: 3 h + 4 h recovery)
Description: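 Human TK6 lymphoblastoid cells were exposed for 4 h to three concentrations of each compound at four ring-trial labs. Compounds P, Q, R and CC were given for 3 h with rat liver S9 plus 4 h recovery. Relative survival was measured by MTT assay 20-24 h after exposure, as % viability relative to solvent control (mean with SD), in the Result 1 round with preselected concentrations.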

CCOS(C)(=O)=O [EMS (Ethyl methanesulfonate)]
relative viability [%]
Details	batch: 2, lab: Lab 1	batch: 2, lab: Lab 2	batch: 2, lab: Lab 3	batch: 2, lab: Lab 4
concentration: 0.22mM	95.4	105	98.2	103
concentration: 0.67mM	91.7	98.1	96.6	92.6
concentration: 2mM	85.2	84.6	67.7	80.4

O=[N+]([O-])c1ccc(O)c([N+](=O)[O-])c1 [2,4-Dinitrophenol]
relative viability [%]
Details	batch: 3, lab: Lab 1	batch: 3, lab: Lab 2	batch: 3, lab: Lab 3	batch: 3, lab: Lab 4
concentration: 0.11mM	92.2	98.2	71.1	97.7
concentration: 0.33mM	84.7	85	67.4	98.6
concentration: 1mM	58.6	37.2	63.9	99.4

Cn1c(=O)c2c(ncn2C)n(C)c1=O [Caffeine]
concentration: 2mM
Details	relative viability [%]
batch: 1, lab: Lab 1	94.7
batch: 1, lab: Lab 2	86.4
batch: 1, lab: Lab 3	108
batch: 1, lab: Lab 4	98.2
batch: 2, lab: Lab 1	96.7
batch: 2, lab: Lab 2	80.1
batch: 2, lab: Lab 3	88.9
batch: 2, lab: Lab 4	100
batch: 3, lab: Lab 1	96.4
batch: 3, lab: Lab 2	92.5
batch: 3, lab: Lab 3	107
batch: 3, lab: Lab 4	92.6

CCN(N=O)C(N)=O [ENU (N-Nitroso-N-ethylurea)]
relative viability [%]
Details	batch: 2, lab: Lab 1	batch: 2, lab: Lab 2	batch: 2, lab: Lab 3	batch: 2, lab: Lab 4
concentration: 0.056mM	97.9	87.58	99.1	101
concentration: 0.167mM	92.2	104	93.5	89.3
concentration: 0.5mM	70.5	95.6	69.3	76.1

C[C@@H]1C[C@H]2[C@@H]3CCC4=CC(=O)C=C[C@]4(C)[C@@]3(F)[C@@H](O)C[C@]2(C)[C@@]1(O)C(=O)CO [Dexamethasone]
relative viability [%]
Details	batch: 3, lab: Lab 1	batch: 3, lab: Lab 2	batch: 3, lab: Lab 3	batch: 3, lab: Lab 4
concentration: 0.11mM	105	103	127	112
concentration: 0.33mM	101	97.9	142	111
concentration: 1mM	86.6	86.4	143	92.2

CCN(CC)CCNC(=O)c1c(C)[nH]c(/C=C2\C(=O)Nc3ccc(F)cc32)c1C.O=C(O)C[C@H](O)C(=O)O [Sunitinib malate]
relative viability [%]
Details	batch: 2, lab: Lab 1	batch: 2, lab: Lab 2	batch: 2, lab: Lab 3	batch: 2, lab: Lab 4
concentration: 2.22uM	103	77.8	91.3	99.4
concentration: 6.67uM	90.4	64.7	69	86.4
concentration: 20uM	64.6	28.5	37	40.8

O.O=P1(N(CCCl)CCCl)NCCCO1 (stereo not drawn) [Cyclophosphamide]
relative viability [%]
Details	batch: 4, lab: Lab 1	batch: 4, lab: Lab 2	batch: 4, lab: Lab 3	batch: 4, lab: Lab 4
concentration: 2.22uM	103	94.2	157	80.3
concentration: 6.67uM	96.49	69	107	81.7
concentration: 20uM	90.45	47.2	73.4	58.4

c1ccc2c(c1)cc1ccc3cccc4ccc2c1c34 [Benzo[a]pyrene]
concentration: 10ug/mL
Details	relative viability [%]
batch: 4, lab: Lab 1	67.8
batch: 4, lab: Lab 2	35.7
batch: 4, lab: Lab 3	66.3
batch: 4, lab: Lab 4	75
